Data: patent US20020042393A1, “Excipient” (priority 1998, published 2002)

What was measured:
[1] = Change in whiteness of excipient mixed with drug at 40° C. and 75% RH (reactivity); assay type: physicochemical
Protocol: (§1) For powder of trehalose or a pharmaceutical composition containing trehalose, values of L, a and b were measured with a color analyzer (TC-1800MKII, mfd. by Tokyo Denshoku Co., Ltd.), and the whiteness of the trehalose or pharmaceutical composition was calculated by the following equation: […]
One gram of each of the trehaloses obtained in Example 1 and 1 g of isoniazid were mixed and then allowed to stand in an atmosphere of 40° C. and 75% RH, and the change in whiteness of the trehalose was observed. On the other hand, 1 g of each of the trehaloses obtained in Example 1 and 1 g of aminophyline were mixed and then allowed to stand in an atmosphere of 40° C. and 75% RH, and the change in whiteness of the trehalose was observed.
One gram of 100-mesh lactose (available from De Melkindustrie Veghel bv) or 1 g of Mannit S (available from Tohwa Kasei Co., Ltd.) and 1 g of aminophyline were mixed and then allowed to stand in an atmosphere of 40° C. and 75% RH, and the change in whiteness of the lactose or Mannit S was observed.
As a starting material. […]

[2] = Angle of repose (Sugiwara's instrument); assay type: physicochemical; details: excipient powder
Source text: Measured by means of a Sugiwara's instrument for measuring angle of repose (Yakuzaigaku 27, p. 260, 1965).

Apparent specific volume = assay type: physicochemical; details: excipient powder
Source text: The whole of 10 g of trehalose powder was gently poured into a 100-ml measuring cylinder without making an impact (in this case, a cylinder having an outside diameter smaller than the inside diameter of the measuring cylinder was placed in the measuring cylinder, and it was slowly lifted after pouring the trehalose), and the apparent specific volume was expressed as a value obtained by dividing the read volume by the weight of the trehalose.

[3] = Average particle size (sieving, 50% cumulative weight); assay type: physicochemical; details: excipient powder
Protocol: Five grams of trehalose was sifted through screens having screen openings of 500 μm, 300 μm and 250 μm, respectively, and then sifted with Air Jet Sieve by using screens having screen openings of 150 μm, 75 μm, 45 μm, 38 μm and 32 μm, respectively. The oversize particle weight percentage [%] was calculated for each screen, and the average particle size is expressed as a particle size corresponding to a cumulative weight percentage of 50%.

[4] = Proportion of particles of 75 μm or more (Air Jet Sieve); assay type: physicochemical; details: excipient powder
Protocol: Five grams of trehalose was weighed onto a screen having a screen opening of 75 μm, and sifted with Air Jet Sieve (Model 200LS, mfd. by ALPINE) for 5 minutes, and the weight percentage of the weight of particles remaining on the screen based on the total weight of particles was calculated as the proportion of particles of 75 μm or more.

[5] = Whiteness of powder (color analyzer); assay type: physicochemical; details: excipient powder
Protocol: as §1

[6] = Disintegration time according to Japanese Pharmacopoeia; assay type: physicochemical; details: listed as C
Protocol: The disintegration time of each of six molded products was measured by the use of ion-exchanged water according to the disintegration time measuring method prescribed in the 13th revised Japanese Pharmacopoeia, and the average of measured values was calculated.

[7] = Water content (Karl Fisher) of tablets before and after storage; assay type: physicochemical; details: tablets compressed at 500 kg/cm^2, 0 day
Protocol: Determined as a value obtained by measuring about 0.1 g of trehalose and determining its water content by the Karl Fisher method.
One hundred grams of commercial “Trehaose” (available from Hayashibara Biochemical Laboratories, Inc.) was dissolved in water to a concentration of about 35 wt %, and the resulting solution was concentrated under reduced pressure with heating at 60° C. so as to have a concentration of about 75 wt %, and allowed to stand at room temperature to precipitate crystals, which were washed with 50 ml of water. Glucose was removed by carrying out the above purification procedure once or twice, to increase the trehalose purity. Trehalose A was obtained by carrying out the purification procedure twice to obtain crystals, drying the crystals, grinding the dried crystals with a bantam mill (number of revolutions 15,000 rpm, feed rate 5 kg/hr, and screen opening 2.0 mmφ), and then sifting the ground crystals through a […]. Trehalose B was obtained by carrying out the purification procedure once to obtain crystals, drying the crystals, grinding the dried crystals with a bantam mill (number of revolutions 10,000 rpm, feed rate 5 kg/hr, and screen opening 2.00 mmφ), and then sifting the ground crystals through a 350-μm screen. Trehalose C was obtained by carrying out the purification procedure once to obtain crystals, drying the crystals, grinding the dried crystals with a bantam mill (number of revolutions 8,000 rpm, feed rate 5 kg/hr, and screen opening 2.0 mmφ), and then sifting the ground crystals through a 350-μm screen. […] Each of trehaloses A to C was compressed into tablets at a compression pressure of 500 kg/cm^2, and the tablet hardness immediately after the compression and the tablet hardness after standing for 3 days in an atmosphere of 40° C. and 75% RH after the compression were compared.
“Trehaose” (available from Hayashibara Bioscience Laboratories Co., Ltd.) was purified once by the method described in Example 1 to obtain crystals, which were dried, ground with a bantam mill (number of revolutions 12,000 rpm, feed rate 5 kg/hr, and screen opening 2.0 mmφ) and then dried at 105° C. for 4 hours to obtain trehalose anhydrous crystals. These crystals were compressed into tablets at a compression pressure of 500 kg/cm^2, and the tablet hardnesses of the tablets were compared in the same manner as in Example 1.

[8] = Tablet hardness (Schleuniger hardness meter); assay type: physicochemical; details: for Tablet hardness at a compression pressure of 1000 kg/cm^2: phenacetin granules
[9] = Wet granulation of phenacetin mixture with HPC binder solution: granule size and yield
[10] = 1 g excipient + 1 g aminophyline, 0 day
[11] = 1 g excipient + 1 g aminophyline, 40° C. and 75% RH, 5 days

OC[C@H]1O[C@@H](O[C@H]2[C@H](O)[C@@H](O)C(O)O[C@@H]2CO)[C@H](O)[C@@H](O)[C@H]1O (some centres unmarked) [100-Mesh lactose, lactose, reference compound]
Whiteness [1, 10]: 99% | Whiteness [1, 11]: 30% | Angle of repose [2]: 43 ° | Apparent specific volume (Apparent specific volume): 1.5 cm^3/g | Average particle size [3]: 104 μm | Proportion of particles of 75 μm or more [4]: 76%

OC[C@@H](O)[C@@H](O)[C@H](O)[C@H](O)CO [Mannit S, reference compound]
Whiteness [1, 10]: 100% | Whiteness ([1]; 1 g excipient + 1 g aminophyline, 40° C. and 75% RH, 1 month): 93% | Whiteness [1, 11]: 98% | Angle of repose ([2]; listed as Mannit 5): 53 ° | Apparent specific volume (Apparent specific volume; listed as Mannit 5): 1.7 cm^3/g | Average particle size ([3]; listed as Mannit 5): 102 μm | Proportion of particles of 75 μm or more ([4]; listed as Mannit 5): 68%

OC[C@H]1O[C@H](O[C@H]2O[C@H](CO)[C@@H](O)[C@H](O)[C@H]2O)[C@H](O)[C@@H](O)[C@@H]1O [Trehalose C, trehalose]
Whiteness ([1]; 1 g excipient + 1 g aminophyline, 0 day, listed as C): 98% | Whiteness ([1]; 1 g excipient + 1 g aminophyline, 40° C. and 75% RH, 1 month, listed as C): 93% | Whiteness ([1]; 1 g excipient + 1 g isoniazid, 0 day, listed as C): 97% | Whiteness ([1]; 1 g excipient + 1 g isoniazid, 40° C. and 75% RH, 1 month, listed as C): 93% | Whiteness ([5]; listed as C): 95% | Angle of repose ([2]; listed as C): 40 ° | Apparent specific volume (Apparent specific volume; listed as C): 1.9 cm^3/g | Disintegration time according to Japanese Pharmacopoeia ([6]; Example 8: molded product of trehalose only, 30 kg/cm^2): 10 s | Disintegration time according to Japanese Pharmacopoeia ([6]; Example 10: as Example 9 but molded at 60 kg/cm^2): 33 s | Disintegration time according to Japanese Pharmacopoeia ([6]; process of Example 9: 950 g excipient + 50 g phenylpropanolamine hydrochloride, 30 kg/cm^2): 10 s | Water content ([7]; listed as C): 9.8% | Tablet hardness ([8]; Example 8: molded product of trehalose only, molded at 30 kg/cm^2, dried overnight at 40° C., listed as C): 6.0 kg | Tablet hardness ([8]; Example 10: as Example 9 but molded at 60 kg/cm^2, listed as C): 8.6 kg | Tablet hardness ([8]; process of Example 9: 950 g excipient + 50 g phenylpropanolamine hydrochloride, molded at 30 kg/cm^2, listed as C): 5.6 kg | Tablet hardness ([8]; tablets compressed at 500 kg/cm^2, 0 day (immediately after compression), listed as C): 2.3 kgf | Tablet hardness ([8]; tablets compressed at 500 kg/cm^2, 3 days at 40° C. and 75% RH, listed as C): 2.3 kgf | Average particle size ([3]; listed as C): 127 μm | Proportion of particles of 75 μm or more ([4]; listed as C): 73%

OC[C@H]1O[C@H](O[C@H]2O[C@H](CO)[C@@H](O)[C@H](O)[C@H]2O)[C@H](O)[C@@H](O)[C@@H]1O [Trehalose D, trehalose]
Whiteness ([5]; listed as D): 96% | Angle of repose ([2]; listed as D): 65 ° | Angle of repose ([2]; listed as trehalose D): 65 ° | Apparent specific volume (Apparent specific volume; listed as D): 4.5 cm^3/g | Average particle size of granules ([9]; phenacetin 50/excipient 30/corn starch 10/microcrystalline cellulose 10, binding solution 100 g): 80 μm | Average particle size of granules ([9]; phenacetin granules, binding solution 120 g): 121 μm | Average particle size of granules ([9]; phenacetin granules, binding solution 160 g): 205 μm | Tablet hardness at a compression pressure of 1000 kg/cm^2 ([8]; binding solution 100 g): 4.5 kgf | Tablet hardness at a compression pressure of 1000 kg/cm^2 ([8]; binding solution 120 g): 4.1 kgf | Tablet hardness at a compression pressure of 1000 kg/cm^2 ([8]; binding solution 160 g): 3.0 kgf | Average particle size ([3]; listed as D): 12 μm | Proportion of particles of 75 μm or more ([4]; listed as D): 1%

OC[C@H]1O[C@H](O[C@H]2O[C@H](CO)[C@@H](O)[C@H](O)[C@H]2O)[C@H](O)[C@@H](O)[C@@H]1O [Trehalose E, trehalose]
Whiteness ([5]; listed as E): 96% | Angle of repose ([2]; listed as E): 55 ° | Angle of repose ([2]; listed as trehalose E): more than 50 ° | Apparent specific volume (Apparent specific volume; listed as E): 3.7 cm^3/g | Average particle size ([3]; listed as E): 25 μm | Proportion of particles of 75 μm or more ([4]; listed as E): 3%

OC[C@H]1O[C@H](O[C@H]2O[C@H](CO)[C@@H](O)[C@H](O)[C@H]2O)[C@H](O)[C@@H](O)[C@@H]1O [Trehalose F, trehalose]
Whiteness ([5]; listed as F): 94% | Angle of repose ([2]; listed as F): 45 ° | Apparent specific volume (Apparent specific volume; listed as F): 2.3 cm^3/g | Water content ([7]; listed as F): 0.5% | Tablet hardness ([8]; tablets compressed at 500 kg/cm^2, 0 day (immediately after compression), listed as F): 4.5 kgf | Average particle size ([3]; listed as F): 49 μm | Proportion of particles of 75 μm or more ([4]; listed as F): 28%

OC[C@H]1O[C@H](O[C@H]2O[C@H](CO)[C@@H](O)[C@H](O)[C@H]2O)[C@H](O)[C@@H](O)[C@@H]1O [Trehalose G, trehalose]
Whiteness ([1]; same manner as in Example 2 (drug not stated), 0 day): 94% | Whiteness ([1]; same manner as in Example 2 (drug not stated), 40° C. and 75% RH, 1 month, listed as G): 87% | Whiteness ([1]; same manner as in Example 2 (drug not stated), 40° C. and 75% RH, 1 month, listed as trehalose G): less than 90% | Whiteness ([5]; listed as G): 94% | Angle of repose ([2]; listed as G): 49 ° | Apparent specific volume (Apparent specific volume; listed as G): 3.1 cm^3/g | Average particle size ([3]; listed as G): 31 μm | Proportion of particles of 75 μm or more ([4]; listed as G): 13%

OC[C@H]1O[C@H](O[C@H]2O[C@H](CO)[C@@H](O)[C@H](O)[C@H]2O)[C@H](O)[C@@H](O)[C@@H]1O [Trehalose H, trehalose]
Whiteness [5]: 98% | Angle of repose [2]: 37 ° | Apparent specific volume (Apparent specific volume): 1.5 cm^3/g | Average particle size [3]: 180 μm | Proportion of particles of 75 μm or more [4]: 91%

OC[C@H]1O[C@H](O[C@H]2O[C@H](CO)[C@@H](O)[C@H](O)[C@H]2O)[C@H](O)[C@@H](O)[C@@H]1O [Trehalose I, trehalose]
Whiteness [5]: 96% | Angle of repose [2]: 30 ° | Apparent specific volume (Apparent specific volume): 1.4 cm^3/g | Average particle size [3]: 280 μm | Proportion of particles of 75 μm or more [4]: 95%

OC[C@H]1O[C@H](O[C@H]2O[C@H](CO)[C@@H](O)[C@H](O)[C@H]2O)[C@H](O)[C@@H](O)[C@@H]1O [Trehalose L, trehalose]
Whiteness ([5]; listed as L): 95% | Apparent specific volume (Apparent specific volume; listed as L): 2.5 mL/g | Average particle size ([3]; listed as L): 45 μm | Proportion of particles of 75 μm or more ([4]; listed as L): 25%

OC[C@H]1O[C@H](O[C@H]2O[C@H](CO)[C@@H](O)[C@H](O)[C@H]2O)[C@H](O)[C@@H](O)[C@@H]1O [Trehalose M, trehalose]
Whiteness ([5]; listed as M): 97% | Apparent specific volume (Apparent specific volume; listed as M): 3.8 mL/g | Average particle size ([3]; listed as M): 8 μm | Proportion of particles of 75 μm or more ([4]; listed as M): 1%

OC[C@H]1O[C@H](O[C@H]2O[C@H](CO)[C@@H](O)[C@H](O)[C@H]2O)[C@H](O)[C@@H](O)[C@@H]1O [Trehalose N, trehalose]
Whiteness ([5]; listed as N): 88% | Apparent specific volume (Apparent specific volume; listed as N): 2.2 mL/g | Average particle size ([3]; listed as N): 70 μm | Proportion of particles of 75 μm or more ([4]; listed as N): 45%
